According to patent US9204646B2, “Pyrazole tetrahydronaphthyl carboxamides” (BAYER CROPSCIENCE AG, priority 2012, dated 2015):
Where two headings read alike, the source gives them in different places.

Columns and labels:
[1] = Measurement of log P values by HPLC on reversed phase columns (EEC directive 79/831 Annex V.A8); assay type: physicochemical; conditions: for logP: Table 1 active ingredients
Uromyces appendiculatus = assay: In vivo preventive test on Uromyces appendiculatus (bean rust); conditions: preventive spray on bean plants, grading 11 days after contamination vs control plants
Description: Bean plants (“Saxa” variety), sown in starter cups on a 50/50 peat soil-pozzolana substrate and grown at 24° C., are treated at the 2-leaf stage (9 cm height) by spraying with the active ingredient prepared as described above. Plants, used as controls, are treated with the mixture of acetone/tween/DMSO/water not containing the active material. After 24 hours, the plants are contaminated by spraying the leaves with an aqueous suspension of Uromyces appendiculatus spores (150 000 spores per ml). […] The contaminated bean plants are incubated for 24 hours at 20° C. and at 100% relative humidity, and then for 10 days at 20° C. and at 70-80% relative humidity. Grading (% of efficacy) is carried out 11 days after the contamination, in comparison with the control plants.

Puccinia recondita = assay: In vivo preventive test on Puccinia recondita (brown rust on wheat); conditions: preventive spray on wheat plants, grading 12 days after contamination vs control plants
Description: Wheat plants (“Scipion” variety), sown in starter cups on a 50/50 peat soil-pozzolana substrate and grown at 22° C., are treated at the 1-leaf stage (10 cm height) by spraying with the active ingredient prepared as described above. Plants, used as controls, are treated with the mixture of acetone/tween/DMSO/water not containing the active material. After 24 hours, the plants are contaminated by spraying the leaves with an aqueous suspension of Puccinia recondita spores (100 000 spores per ml). […] The contaminated wheat plants are incubated for 24 hours at 20° C. and at 100% relative humidity, and then for 10 days at 20° C. and at 70-80% relative humidity. Grading (% of efficacy) is carried out 12 days after the contamination, in comparison with the control plants.

Alternaria brassicae = assay: In vivo preventive test on Alternaria brassicae (leaf spot on radish); conditions: preventive spray on radish plants, grading 6 days after contamination vs control plants
Description: Radish plants (“Pernod Clair” variety), sown in starter cups on a 50/50 peat soil-pozzolana substrate and grown at 17° C., are treated at the cotyledon stage by spraying with the active ingredient prepared as described above. Plants, used as controls, are treated with the mixture of acetone/tween/DMSO/water not containing the active material. After 24 hours, the plants are contaminated by spraying the cotyledons with an aqueous suspension of Alternaria brassicae spores (50 000 spores per ml). The spores are collected from a 15-day-old culture. The contaminated radish plants are incubated at 20° C. and at 100% relative humidity. Grading (% of efficacy) is carried out 6 days after the contamination, in comparison with the control plants.

Pyrenophora teres = assay: In vivo preventive test on Pyrenophora teres (net blotch on barley); conditions: preventive spray on barley plants, grading 14 days after contamination vs control plants
Description: Barley plants (“Plaisant” variety), sown in starter cups on a 50/50 peat soil-pozzolana substrate and grown at 22° C., are treated at the 1-leaf stage (10 cm height) by spraying with the active ingredient prepared as described above. Plants, used as controls, are treated with the mixture of acetone/tween/DMSO/water not containing the active material. After 24 hours, the plants are contaminated by spraying the leaves with an aqueous suspension of Pyrenophora teres spores (12 000 spores per ml). The spores are collected from a 12-day-old culture. The contaminated barley plants are incubated for 48 hours at 20° C. and at 100% relative humidity, and then for 12 days at 20° C. at 70-80% relative humidity. Grading (% of efficacy) is carried out 14 days after the contamination, in comparison with the control plants.

Botrytis cinerea = assay: In vivo preventive test on Botrytis cinerea (grey mould); conditions: preventive spray on gherkin plants, grading 4 to 5 days after contamination vs control plants
Description: Gherkin plants (“Vert petit de Paris” variety), sown in starter cups on a 50/50 peat soil-pozzolana substrate and grown at 24° C., are treated at the Z11 cotyledon stage by spraying with the active ingredient prepared as described above. Plants, used as controls, are treated with the mixture of acetone/tween/DMSO/water not containing the active material. After 24 hours, the plants are contaminated by spraying the cotyledons with an aqueous suspension of cryopreserved Botrytis cinerea spores (50 000 spores per ml). The spores are suspended in a nutrient solution composed of 10 g/L of PDB, 50 g/L of D-Fructose, 2 g/L of NH4NO3 and 1 g/L of KH2PO4. The contaminated gherkin plants are incubated at 17° C. and at 90% relative humidity. Grading (% of efficacy) is carried out 4 to 5 days after the contamination, in comparison with the control plants.

Sphaerotheca fuliginea = assay: In vivo preventive test on Sphaerotheca fuliginea (powdery mildew on cucurbits); conditions: preventive spray on gherkin plants, grading 12 days after contamination vs control plants
Description: Gherkin plants (“Vert petit de Paris” variety), sown in starter cups on a 50/50 peat soil-pozzolana substrate and grown at 24° C., are treated at the Z11 cotyledon stage by spraying with the active ingredient prepared as described above. Plants, used as controls, are treated with the mixture of acetone/tween/DMSO/water not containing the active material. After 24 hours, the plants are contaminated by spraying the cotyledons with an aqueous suspension of Sphaerotheca fuliginea spores (100 000 spores per ml). The spores are collected from infected plants. The contaminated gherkin plants are incubated at about 20° C. and at 70-80% relative humidity. Grading (% of efficacy) is carried out 12 days after the contamination, in comparison with the control plants.

Septoria tritici = assay: In vivo preventive test on Septoria tritici (leaf spot on wheat); conditions: dose of 500 ppm; preventive spray on wheat plants; grading 24 days after contamination vs control plants
Description: Wheat plants (“Scipion” variety), sown in starter cups on a 50/50 peat soil-pozzolana substrate and grown at 22° C., are treated at the 1-leaf stage (10 cm height) by spraying with the active ingredient prepared as described above. Plants, used as controls, are treated with the mixture of acetone/tween/DMSO/water not containing the active material. After 24 hours, the plants are contaminated by spraying the leaves with an aqueous suspension of cryopreserved Septoria tritici spores (500 000 spores per ml). The contaminated wheat plants are incubated for 72 hours at 18° C. and at 100% relative humidity, and then for 21 days at 90% relative humidity. Grading (% of efficacy) is carried out 24 days after the contamination, in comparison with the control plants.

[2] = method [a]: LC-MS at pH 2.7, 0.1% formic acid in water / acetonitrile, linear gradient 10% to 95% acetonitrile
[3] = reversed phase HPLC column, method [a]: LC-MS at pH 2.7, 0.1% formic acid in water / acetonitrile, linear gradient 10% to 95% acetonitrile, Table 2 intermediates of formula (III-a), read-out: logP

SMILES	logP [1, 2]	Eff. % (Uromyces appendiculatus; dose of 500 ppm) [%]	Eff. % (Puccinia recondita; dose of 500 ppm) [%]	Eff. % (Alternaria brassicae; dose of 500 ppm) [%]	also measured
Cn1nc(C(F)F)c(C(=O)Nc2cccc3c2C(C)(C)CCC3)c1F [Example 29]	3.44[a]	–	–	–	–
Cn1nc(C(F)F)c(C(=O)Nc2ccc(F)c3c2CCCC3(C)C)c1Cl [Example 16]	4.01[a]	100	97	–	–
Cn1nc(C(F)F)c(C(=O)Nc2cccc3c2CCC(C)(C)C3)c1Br [Example 23]	4.04[a]	96	79	–	–
Cn1nc(C(F)F)c(C(=O)Nc2ccc(F)c3c2CCCC3(C)C)c1F [Example 24]	3.76[a]	100	97	75	–
CCON=C1CCCc2c(NC(=O)c3c(C(F)F)nn(C)c3F)cccc21 [Example 18]	3.31[a]	81	–	83	Eff. % (Pyrenophora teres; dose of 500 ppm): 92%
CC1CCC(C)(C)c2cccc(NC(=O)c3c(C(F)F)nn(C)c3Cl)c21 (racemic) [Example 4]	4.14[a]	99	94	92	–
CCON=C1CCCc2c(NC(=O)c3c(C(F)F)nn(C)c3Br)cccc21 [Example 20]	3.57[a]	–	–	–	–
CON=C1CCCc2c(NC(=O)c3c(C(F)F)nn(C)c3F)cccc21 [Example 19]	2.86[a]	–	–	96	Eff. % (Botrytis cinerea; dose of 500 ppm): 96%
CC1(C)CCCc2c(N)cccc21 [III-a-1, 5,5-dimethyl-5,6,7,8-tetrahydronaphthalen-1-amine]	–	–	–	–	chromatographic logP [1, 3]: 1.69
CCON=C1CCCc2c(NC(=O)c3c(C(F)F)nn(C)c3Cl)cccc21 [Example 21]	3.55[a]	–	94	–	Eff. % (Pyrenophora teres; dose of 500 ppm): 75%
Cn1nc(C(F)F)c(C(=O)Nc2cccc3c2C(C)(C)CCC3)c1Cl [Example 27]	3.69[a]	–	–	–	–
CON=C1CCCc2c(NC(=O)c3c(C(F)F)nn(C)c3Cl)cccc21 [Example 28]	3.09[a]	–	–	–	–
C=C1c2cccc(NC(=O)c3c(C(F)F)nn(C)c3Cl)c2CCC1(C)C [Example 5]	4.14[a]	100	94	–	Eff. % (Botrytis cinerea; dose of 500 ppm): 93%
Cn1nc(C(F)F)c(C(=S)Nc2cccc3c2CCC(C)(C)C3)c1F [Example 32]	3.99[a]	–	–	–	Eff. % (Botrytis cinerea; dose of 100 ppm): 73%; Eff. % (Uromyces appendiculatus; dose of 100 ppm): 97%; Eff. % (Puccinia recondita; dose of 100 ppm): 94%; Eff. % (Pyrenophora teres; dose of 100 ppm): 83%; Eff. % (Sphaerotheca fuliginea; dose of 100 ppm): 98%; Eff. % (Alternaria brassicae; dose of 100 ppm): 75%
Cn1nc(C(F)F)c(C(=S)Nc2cccc3c2CCC(C)(C)C3)c1Br [Example 31]	4.11[a]	–	–	–	–
CC1c2cccc(NC(=O)c3c(C(F)F)nn(C)c3Cl)c2CCC1(C)C (racemic) [Example 11]	4.39[a]	100	98	–	–
Cn1nc(C(F)F)c(C(=S)Nc2ccc(F)c3c2CCCC3(C)C)c1Cl [Example 17]	4.24[a]	100	100	–	–
Cn1nc(C(F)F)c(C(=O)Nc2cccc3c2CC(C)(C)CC3)c1F [Example 13]	3.72[a]	100	97	–	Eff. % (Septoria tritici): 95%; Eff. % (Pyrenophora teres; dose of 500 ppm): 75%; Eff. % (Sphaerotheca fuliginea; dose of 500 ppm): 98%
CC1CCc2c(NC(=O)c3c(C(F)F)nn(C)c3F)cccc2C1C (centres unmarked) [Example 8]	3.83[a]	99	100	97	Eff. % (Pyrenophora teres; dose of 500 ppm): 71%; Eff. % (Sphaerotheca fuliginea; dose of 500 ppm): 85%
CC1CCc2c(NC(=O)c3c(C(F)F)nn(C)c3Cl)cccc2C1(C)C (racemic) [Example 15]	4.29[a]	95	98	–	Eff. % (Septoria tritici): 75%; Eff. % (Sphaerotheca fuliginea; dose of 500 ppm): 70%
CON=C1CCCc2c(NC(=O)c3c(C(F)F)nn(C)c3Br)cccc21 [Example 26]	3.13[a]	–	–	–	–
Cn1nc(C(F)F)c(C(=S)Nc2cccc3c2CCC(C)(C)C3)c1Cl [Example 33, 5-chloro-3-(difluoromethyl)-N-(6,6-dimethyl-5,6,7,8-tetrahydronaphthalen-1-yl)-1-methyl-1H-pyrazole-4-carbothioamide]	–	–	–	–	Eff. % (Uromyces appendiculatus; dose of 100 ppm): 99%; chromatographic logP ([1]; pH 2.7): 4.11; Eff. % (Puccinia recondita; dose of 100 ppm): 94%; Eff. % (Alternaria brassicae; dose of 100 ppm): 75%
CC1CCC(C)(C)c2cccc(NC(=O)c3c(C(F)F)nn(C)c3F)c21 (racemic) [Example 3]	3.92[a]	100	94	93	Eff. % (Botrytis cinerea; dose of 500 ppm): 100%
CC1CCc2c(NC(=O)c3c(C(F)F)nn(C)c3Cl)cccc2C1C (centres unmarked) [Example 7]	4.09[a]	100	100	97	–
CC1(C)CCc2c(N)cccc2C1 [III-a-12, 6,6-dimethyl-5,6,7,8-tetrahydronaphthalen-1-amine]	–	–	–	–	chromatographic logP [1, 3]: 1.86
Cn1nc(C(F)F)c(C(=O)Nc2cccc3c2CC(C)(C)CC3)c1Cl [Example 14]	3.9[a]	99	100	71	Eff. % (Septoria tritici): 90%; Eff. % (Pyrenophora teres; dose of 500 ppm): 97%; Eff. % (Sphaerotheca fuliginea; dose of 500 ppm): 98%
